Data on 18 molecules can be found in patent US11999727B2 (Tango Therapeutics, Inc., priority 2020, dated 2024).

Bounds are passed on as bounds.

For experiment [1], the target named is T1, PRMT5 (Homo sapiens, UniProt O14744).
T1 construct: purchased Viva (custom protein)
In words: PRMT5 biochemical IC50 assay with no cofactor. The settings on record: PRMT5, no cofactor; read-out: No Cofactor/rel IC50. The source says: Table 1 indicates IC50 values (μM) against PRMT5 for exemplary compounds in the presence of SAM as cofactor, with no cofactor, and with MTA as cofactor, respectively (columns 4-6). […] Ki values can be calculated from the IC50 values as described in the Examples section. As detailed in the Examples section, for the assay performed in the presence of SAM, IC50=Ki×1.5 (Ki=IC50/1.5).

In experiment [2] the target is T1, PRMT5. The experiment in a line: PRMT5 biochemical IC50 assay with MTA as cofactor. To be noted: PRMT5, MTA as cofactor; read-out: MTA IC50.
Experiment [3] concerns HAP1 MTAP-deleted cell line. The experiment in a line: Viability assay, MTAP-deleted cell line. Format: cell-based. The settings on record: Homo sapiens, HAP1, viability assay, MTAP-deleted cell line; read-out: HAP1 MTAP deleted viability. The source says: Table 1 additionally indicates IC50 values in a viability assay for the MTAP-deleted cell line (column 10), indicating the effect of treatment with compound on cell survival.

In experiment [4] the test system is HAP1 MTAP-deleted cell line. The experiment in a line: SDMA in-cell western assay, HAP1 MTAP-deleted. It counts as cell-based. To be noted: for IC50: Homo sapiens, HAP1, SDMA in-cell western, HAP1 MTAP-deleted, read-out: HAP 1 MTAP deleted IC50; for MTAP intact/deleted ratio: IC50 ratio HAP1 MTAP-intact / HAP1 MTAP-deleted, SDMA in-cell western. An outline of the steps: (§1)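 IC50 values come from SDMA signal quantified by in-cell western in two HAP1 lines, one with native MTAP levels and one lacking MTAP.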

Experiment [5] relates to HAP1 MTAP-intact cell line. In words: SDMA in-cell western assay, HAP1 MTAP-intact. Format: cell-based. To be noted: Homo sapiens, HAP1, SDMA in-cell western, HAP1 MTAP-intact; read-out: MTAP HAP1 intact IC50. An outline of the steps: as §1
Experiment [6] concerns the target T1, PRMT5. The experiment in a line: PRMT5 biochemical IC50 assay with SAM as cofactor. The settings on record: PRMT5, SAM as cofactor; read-out: SAM IC50.

T1 sequence (O14744 whole entry): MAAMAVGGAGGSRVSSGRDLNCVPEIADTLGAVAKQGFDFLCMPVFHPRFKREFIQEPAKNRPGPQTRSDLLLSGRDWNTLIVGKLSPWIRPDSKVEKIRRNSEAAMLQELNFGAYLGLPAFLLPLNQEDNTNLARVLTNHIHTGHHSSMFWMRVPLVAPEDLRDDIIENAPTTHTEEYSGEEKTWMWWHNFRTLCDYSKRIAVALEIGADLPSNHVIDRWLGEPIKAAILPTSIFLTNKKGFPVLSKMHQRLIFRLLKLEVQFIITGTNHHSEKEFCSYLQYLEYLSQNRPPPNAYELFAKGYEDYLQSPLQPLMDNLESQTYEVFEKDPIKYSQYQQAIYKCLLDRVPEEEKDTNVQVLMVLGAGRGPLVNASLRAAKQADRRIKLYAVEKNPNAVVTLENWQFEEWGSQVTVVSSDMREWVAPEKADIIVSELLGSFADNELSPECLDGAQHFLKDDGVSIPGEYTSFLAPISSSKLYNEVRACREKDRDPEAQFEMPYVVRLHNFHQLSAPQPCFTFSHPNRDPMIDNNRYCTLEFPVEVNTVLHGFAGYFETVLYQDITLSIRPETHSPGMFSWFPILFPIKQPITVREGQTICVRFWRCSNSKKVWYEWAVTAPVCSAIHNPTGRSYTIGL
T1 sequence (Q9BQA1 whole entry partner): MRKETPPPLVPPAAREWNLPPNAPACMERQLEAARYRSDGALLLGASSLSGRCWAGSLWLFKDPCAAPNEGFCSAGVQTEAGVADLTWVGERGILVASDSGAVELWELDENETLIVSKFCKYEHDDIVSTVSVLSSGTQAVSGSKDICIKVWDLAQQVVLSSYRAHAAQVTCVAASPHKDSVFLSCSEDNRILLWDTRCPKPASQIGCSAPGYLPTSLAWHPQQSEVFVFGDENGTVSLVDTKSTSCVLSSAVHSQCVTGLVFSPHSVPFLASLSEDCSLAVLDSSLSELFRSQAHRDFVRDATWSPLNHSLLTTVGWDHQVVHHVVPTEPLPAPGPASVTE

Regarding `CC(=O)Nc1ccc([C@H]2CC[C@H](C)CN2C(=O)C(=O)Nc2cnc(N)c(C)c2)cn1` (single isomer, unassigned) [Compound 915], the IC50 is below 50 nM on PRMT5 [1]; below 50 nM at PRMT5 [2]; 1000 to 10000 nM in experiment [3]; below 100 nM in experiment [4]; 100 to 1000 nM in experiment [5]; 50 to 500 nM on PRMT5 [6]. The MTAP intact/deleted ratio result in experiment [4] is reported as “A (an IC50 ratio greater than or equal to 10 fold)”.

For `COc1ncc(NC(=O)C(=O)N2C[C@H](C)CC[C@H]2c2ccc3[nH]c(C)nc3c2)cc1C(N)=O` (single isomer, unassigned) [Compound 917], the IC50 on PRMT5 [1] was below 50 nM; on PRMT5 [2], below 50 nM; in experiment [3] it was 1000 to 10000 nM; in experiment [4], below 100 nM; in experiment [5], above 1000 nM; on PRMT5 [6] it was 50 to 500 nM. The MTAP intact/deleted ratio result in experiment [4] is given as “A (an IC50 ratio greater than or equal to 10 fold)”.

Turning to `COc1ncc(NC(=O)C(=O)N2C[C@@H](C)CC[C@@H]2c2cccc3[nH]ncc23)cc1C(N)=O` (single isomer, unassigned) [Compound 918], the IC50 at PRMT5 [1] was 50 to 500 nM; on PRMT5 [2], below 50 nM; in experiment [3], below 1000 nM; in experiment [4], below 100 nM; in experiment [5] it was above 1000 nM; at PRMT5 [6], 50 to 500 nM. The MTAP intact/deleted ratio result in experiment [4] was “A (an IC50 ratio greater than or equal to 10 fold)”.

With `CCc1cc(NC(=O)C(=O)N2C[C@H](C)CC[C@H]2c2ccc3cnccc3c2)cnc1N` (single isomer, unassigned) [Compound 919], the IC50 at PRMT5 [1] is below 50 nM; on PRMT5 [2], below 50 nM; in experiment [3], below 1000 nM; in experiment [4], below 100 nM; in experiment [5] it was 100 to 1000 nM; on PRMT5 [6], 50 to 500 nM. Further, the MTAP intact/deleted ratio result in experiment [4] is on record as “A (an IC50 ratio greater than or equal to 10 fold)”.

Consider `CCc1cc(NC(=O)C(=O)N2C[C@H](C)CC[C@H]2c2ccc(NC(C)=O)nc2)cnc1N` (single isomer, unassigned) [Compound 921], for which the IC50 was above 500 nM at PRMT5 [1]; above 500 nM on PRMT5 [2]; above 10000 nM in experiment [3]; above 1000 nM in experiment [4]; above 1000 nM in experiment [5]; above 500 nM at PRMT5 [6]. The MTAP intact/deleted ratio entry in experiment [4] is “B (an IC50 ratio greater than or equal to 3 fold but lower than 10 fold)”.

Take `COc1ncc(NC(=O)C(=O)N2C[C@@H](C)CC[C@@H]2c2ccc3[nH]c(C)nc3c2)cc1C(N)=O` (single isomer, unassigned) [Compound 924]: the IC50 is above 500 nM on PRMT5 [1]; above 500 nM at PRMT5 [2]; above 10000 nM in experiment [3]; above 1000 nM in experiment [4]; above 1000 nM in experiment [5]; above 500 nM on PRMT5 [6]. In addition, the MTAP intact/deleted ratio entry in experiment [4] is “B (an IC50 ratio greater than or equal to 3 fold but lower than 10 fold)”.

Regarding `CCc1cc(NC(=O)C(=O)N2C[C@@H](C)CC[C@@H]2c2ccc(NC(C)=O)nc2)cnc1N` (single isomer, unassigned) [Compound 925], the IC50 on PRMT5 [1] was below 50 nM; at PRMT5 [2], below 50 nM; in experiment [3], below 1000 nM; in experiment [4], below 100 nM; in experiment [5], 100 to 1000 nM; at PRMT5 [6] it was 50 to 500 nM. Further, the MTAP intact/deleted ratio result in experiment [4] is on record as “A (an IC50 ratio greater than or equal to 10 fold)”.

On to `COc1ncc(NC(=O)C(=O)N2C[C@H](C)CC[C@H]2c2cccc3[nH]ncc23)cc1C(N)=O` (single isomer, unassigned) [Compound 926], for which the IC50 on PRMT5 [1] was above 500 nM; on PRMT5 [2], above 500 nM; in experiment [3] it was above 10000 nM; in experiment [4], above 1000 nM; in experiment [5], above 1000 nM; at PRMT5 [6], above 500 nM. In addition, the MTAP intact/deleted ratio entry in experiment [4] was “C (an IC50 ratio of less than 3 fold)”.

In the case of `CC(=O)Nc1ccc([C@@H]2CC[C@@H](C)CN2C(=O)C(=O)Nc2cnc(N)c(C)c2)cn1` (single isomer, unassigned) [Compound 927], the IC50 was above 500 nM on PRMT5 [1]; above 500 nM on PRMT5 [2]; above 10000 nM in experiment [3]; above 1000 nM in experiment [4]; above 1000 nM in experiment [5]; above 500 nM at PRMT5 [6]. The MTAP intact/deleted ratio entry in experiment [4] is given as “C (an IC50 ratio of less than 3 fold)”.

With `CCc1cc(NC(=O)C(=O)N2C[C@@H](C)CC[C@@H]2c2cccc3[nH]ncc23)cnc1N` (single isomer, unassigned) [Compound 928], the IC50 at PRMT5 [1] is below 50 nM; at PRMT5 [2], below 50 nM; in experiment [3], below 1000 nM; in experiment [4], below 100 nM; in experiment [5], above 1000 nM; at PRMT5 [6], 50 to 500 nM. Besides, the MTAP intact/deleted ratio entry in experiment [4] was “A (an IC50 ratio greater than or equal to 10 fold)”.

For the molecule `CCc1cc(NC(=O)C(=O)N2C[C@@H](C)CC[C@@H]2c2ccc3cnccc3c2)cnc1N` (single isomer, unassigned) [Compound 929], the IC50 on PRMT5 [1] was above 500 nM; on PRMT5 [2] it was above 500 nM; in experiment [3], 1000 to 10000 nM; in experiment [4], 100 to 1000 nM; in experiment [5] it was above 1000 nM; at PRMT5 [6], above 500 nM. For the same molecule, in experiment [4], the MTAP intact/deleted ratio entry is given as “A (an IC50 ratio greater than or equal to 10 fold)”.

Take `COc1ncc(NC(=O)C(=O)N2C[C@H](C)CC[C@H]2c2ccc(NC(C)=O)nc2)cc1C(N)=O` (single isomer, unassigned) [Compound 930]: the IC50 was 50 to 500 nM on PRMT5 [1]; below 50 nM at PRMT5 [2]; 1000 to 10000 nM in experiment [3]; below 100 nM in experiment [4]; above 1000 nM in experiment [5]; 50 to 500 nM on PRMT5 [6]. For the same molecule, in experiment [4], the MTAP intact/deleted ratio result is “A (an IC50 ratio greater than or equal to 10 fold)”.

Turning to `CCc1cc(NC(=O)C(=O)N2C[C@H](C)CC[C@H]2c2ccn(-c3cc[nH]n3)n2)cnc1N` (single isomer, unassigned) [Compound 931], the IC50 at PRMT5 [1] is 50 to 500 nM; at PRMT5 [2], below 50 nM; in experiment [3] it was below 1000 nM; in experiment [4] it was below 100 nM; in experiment [5], 100 to 1000 nM; at PRMT5 [6] it was 50 to 500 nM. Further, the MTAP intact/deleted ratio entry in experiment [4] is listed as “A (an IC50 ratio greater than or equal to 10 fold)”.

For the molecule `COc1ncc(NC(=O)C(=O)N2C[C@H](C)CC[C@H]2c2ccc3cnccc3c2)cc1C(N)=O` (single isomer, unassigned) [Compound 933], the IC50 is above 500 nM at PRMT5 [1]; above 500 nM on PRMT5 [2]; above 10000 nM in experiment [3]; above 1000 nM in experiment [4]; above 1000 nM in experiment [5]; above 500 nM on PRMT5 [6]. Moreover, in experiment [4], the MTAP intact/deleted ratio entry is “B (an IC50 ratio greater than or equal to 3 fold but lower than 10 fold)”.

On to `CC(=O)Nc1ccc([C@@H]2CC[C@@H](C)CN2C(=O)C(=O)Nc2cncc(C(N)=O)c2)cn1` (single isomer, unassigned) [Compound 934], for which the IC50 on PRMT5 [1] is 50 to 500 nM; on PRMT5 [2], below 50 nM; in experiment [3], above 10000 nM; in experiment [4], 100 to 1000 nM; in experiment [5], above 1000 nM; on PRMT5 [6], 50 to 500 nM. For the same molecule, the MTAP intact/deleted ratio result in experiment [4] is given as “A (an IC50 ratio greater than or equal to 10 fold)”.

On to `CCc1cc(NC(=O)C(=O)N2C[C@H](C)C(F)(F)C[C@H]2c2ccc(C)nc2)cnc1N` (single isomer, unassigned) [Compound 935], for which the IC50 on PRMT5 [1] is above 500 nM; at PRMT5 [2] it was above 500 nM; in experiment [3] it was above 10000 nM; in experiment [4], above 1000 nM; in experiment [5] it was above 1000 nM; at PRMT5 [6] it was above 500 nM. Also, the MTAP intact/deleted ratio entry in experiment [4] is reported as “C (an IC50 ratio of less than 3 fold)”.

Consider `COc1ncc(NC(=O)C(=O)N2C[C@H](C)C(F)(F)C[C@H]2c2ccc(C)nc2)cc1C(N)=O` (single isomer, unassigned) [Compound 936], for which the IC50 was above 500 nM at PRMT5 [1]; above 500 nM at PRMT5 [2]; above 10000 nM in experiment [3]; above 1000 nM in experiment [4]; above 1000 nM in experiment [5]; above 500 nM on PRMT5 [6]. Besides, the MTAP intact/deleted ratio entry in experiment [4] is reported as “C (an IC50 ratio of less than 3 fold)”.

Take `Cc1cc(NC(=O)C(=O)N2C[C@@H](C)CC[C@@H]2c2cn[nH]c2)cnc1N` (single isomer, unassigned) [Compound 941]: the IC50 on PRMT5 [1] is below 50 nM; at PRMT5 [2], below 50 nM; in experiment [3], 1000 to 10000 nM; in experiment [4], below 100 nM; in experiment [5], 100 to 1000 nM; at PRMT5 [6], 50 to 500 nM. Also, the MTAP intact/deleted ratio entry in experiment [4] is reported as “B (an IC50 ratio greater than or equal to 3 fold but lower than 10 fold)”.
